Assays:
Format in all cases: functional
LOX IMVI = test: Cytotoxicity against human LOXIMVI cells after 48 hrs by sulforhodamine B assay
NCI-H322M = test: Cytotoxicity against human NCI-H322M cells at 10 uM after 48 hrs by sulforhodamine B assay relative to control
A498 = test: Cytotoxicity against human A498 cells after 48 hrs by sulforhodamine B assay; conditions: A498, 48 h
[1] = Cytotoxicity against human EKVX cells at 10 uM after 48 hrs by sulforhodamine B assay relative to control
MDA-MB-435 [2] = test: Cytotoxicity against human MDA-MB-435 cells after 48 hrs by sulforhodamine B assay; conditions: MDA-MB-435, 48 h
NCI-H23 = test: Cytotoxicity against human NCI-H23 cells after 48 hrs by sulforhodamine B assay; conditions: NCI-H23, 48 h
SF-268 [3] = test: Cytotoxicity against human SF268 cells after 48 hrs by sulforhodamine B assay; conditions: SF-268, 48 h
RXF 393 = test: Cytotoxicity against human RXF393 cells at 10 uM after 48 hrs by sulforhodamine B assay relative to control
IGROV-1 [4] = test: Cytotoxicity against human IGROV1 cells at 10 uM after 48 hrs by sulforhodamine B assay relative to control
NCI/ADR-RES = test: Cytotoxicity against human NCI/ADR-RES cells after 48 hrs by sulforhodamine B assay
HOP-92 = test: Cytotoxicity against human HOP92 cells after 48 hrs by sulforhodamine B assay; conditions: HOP-92, 48 h
786-0 = test: Cytotoxicity against human 786-0 cells after 48 hrs by sulforhodamine B assay; conditions: 786-0, 48 h
SNB-19 [5] = test: Cytotoxicity against human SNB19 cells at 10 uM after 48 hrs by sulforhodamine B assay relative to control
COLO 205 = test: Cytotoxicity against human COLO205 cells at 10 uM after 48 hrs by sulforhodamine B assay relative to control
TK-10 [6] = test: Cytotoxicity against human TK10 cells at 10 uM after 48 hrs by sulforhodamine B assay relative to control
UACC-62 = test: Cytotoxicity against human UACC62 cells at 10 uM after 48 hrs by sulforhodamine B assay relative to control
SR [7] = test: Cytotoxicity against human SR cells at 10 uM after 48 hrs by sulforhodamine B assay relative to control
SK-MEL-28 = test: Cytotoxicity against human SK-MEL-28 cells at 10 uM after 48 hrs by sulforhodamine B assay relative to control
A549 = test: Cytotoxicity against human A549 cells at 10 uM after 48 hrs by sulforhodamine B assay relative to control
MDA-MB-435 [8] = test: Cytotoxicity against human MDA-MB-435 cells at 10 uM after 48 hrs by sulforhodamine B assay relative to control
SW-620 [9] = test: Cytotoxicity against human SW620 cells at 10 uM after 48 hrs by sulforhodamine B assay relative to control
Malme-3M = test: Cytotoxicity against human MALME-3M cells at 10 uM after 48 hrs by sulforhodamine B assay relative to control
SK-OV-3 = test: Cytotoxicity against human SKOV3 cells after 48 hrs by sulforhodamine B assay; conditions: SK-OV-3, 48 h
RPMI-8226 = test: Cytotoxicity against human RPMI8226 cells after 48 hrs by sulforhodamine B assay; conditions: RPMI-8226, 48 h
SR [10] = test: Cytotoxicity against human SR cells after 48 hrs by sulforhodamine B assay
IGROV-1 [11] = test: Cytotoxicity against human IGROV1 cells after 48 hrs by sulforhodamine B assay; conditions: IGROV-1, 48 h
NCI-H522 = test: Cytotoxicity against human NCI-H522 cells after 48 hrs by sulforhodamine B assay; conditions: NCI-H522, 48 h
MDA-MB-231 = test: Cytotoxicity against human MDA-MB-231 cells at 10 uM after 48 hrs by sulforhodamine B assay relative to control
MCF7 [12] = test: Cytotoxicity against human MCF7 cells after 48 hrs by sulforhodamine B assay; conditions: MCF7, 48 h
SNB-19 [13] = test: Cytotoxicity against human SNB19 cells after 48 hrs by sulforhodamine B assay; conditions: SNB-19, 48 h
NCI-H226 = test: Cytotoxicity against human NCI-H226 cells after 48 hrs by sulforhodamine B assay; conditions: NCI-H226, 48 h
SK-MEL-5 = test: Cytotoxicity against human SK-MEL-5 cells at 10 uM after 48 hrs by sulforhodamine B assay relative to control
SW-620 [14] = test: Cytotoxicity against human SW620 cells after 48 hrs by sulforhodamine B assay; conditions: SW-620, 48 h
SF-268 [15] = test: Cytotoxicity against human SF268 cells at 10 uM after 48 hrs by sulforhodamine B assay relative to control
BT-549 = test: Cytotoxicity against human BT549 cells after 48 hrs by sulforhodamine B assay; conditions: BT-549, 48 h
NCI-H460 = test: Cytotoxicity against human NCI-H460 cells after 48 hrs by sulforhodamine B assay; conditions: NCI-H460, 48 h
T47D = test: Cytotoxicity against human T47D cells at 10 uM after 48 hrs by sulforhodamine B assay relative to control
KM12 = test: Cytotoxicity against human KM12 cells at 10 uM after 48 hrs by sulforhodamine B assay relative to control
TK-10 [16] = test: Cytotoxicity against human TK10 cells after 48 hrs by sulforhodamine B assay; conditions: TK-10, 48 h
MCF7 [17] = test: Cytotoxicity against human MCF7 cells at 10 uM after 48 hrs by sulforhodamine B assay relative to control
[18] = read-out: LC50 (the source's name)

CCCCNCC(=O)Nc1ccc2c(c1)C(=O)c1cc(NC(=O)CNCCCC)ccc1-2
GI50 (LOX IMVI): 1.05 µM | TGI (LOX IMVI): 2.34 µM | CC50 (LOX IMVI; [18]): 5.18 µM | Activity (NCI-H322M): -0.61% | GI50 (A498): 1.63 µM | TGI (A498): 5.36 µM | CC50 (A498; [18]): 25.1 µM | Activity [1]: 58.12% | GI50 (MDA-MB-435 [2]): 1.63 µM | TGI (MDA-MB-435 [2]): 3.4 µM | CC50 (MDA-MB-435 [2]; [18]): 7.1 µM | GI50 (NCI-H23): 2.63 µM | TGI (NCI-H23): 10.1 µM | CC50 (NCI-H23; [18]): 35.7 µM | GI50 (SF-268 [3]): 1.69 µM | TGI (SF-268 [3]): 3.97 µM | CC50 (SF-268 [3]; [18]): 9.33 µM | Activity (RXF 393): -76.54% | Activity (IGROV-1 [4]): 46.91% | GI50 (NCI/ADR-RES): 2.89 µM | TGI (NCI/ADR-RES): 10.9 µM | CC50 (NCI/ADR-RES; [18]): 41.4 µM | GI50 (HOP-92): 1.4 µM | TGI (HOP-92): 3.77 µM | CC50 (HOP-92; [18]): 10.6 µM | GI50 (786-0): 1.43 µM | TGI (786-0): 2.82 µM | CC50 (786-0; [18]): 5.56 µM | Activity (SNB-19 [5]): 39.02% | Activity (COLO 205): -86.41% | Activity (TK-10 [6]): 7.32% | Activity (UACC-62): 7.57% | Activity (SR [7]): -56.48% | Activity (SK-MEL-28): -81.88% | Activity (A549): -32.16% | Activity (MDA-MB-435 [8]): -58.56% | Activity (SW-620 [9]): -4.84% | Activity (Malme-3M): -68.3% | GI50 (SK-OV-3): 2.55 µM | TGI (SK-OV-3): 8.26 µM | CC50 (SK-OV-3; [18]): 29.5 µM | GI50 (RPMI-8226): 1.86 µM | TGI (RPMI-8226): 4.9 µM | CC50 (RPMI-8226; [18]): 4.6 µM | GI50 (SR [10]): 0.22 µM | TGI (SR [10]): 0.53 µM | CC50 (SR [10]; [18]): 3.44 µM | GI50 (IGROV-1 [11]): 2.24 µM | TGI (IGROV-1 [11]): 6.53 µM | CC50 (IGROV-1 [11]; [18]): 40.6 µM | GI50 (NCI-H522): 2.08 µM | TGI (NCI-H522): 4.08 µM | CC50 (NCI-H522; [18]): 7.99 µM | Activity (MDA-MB-231): -27.12% | GI50 (MCF7 [12]): 2.25 µM | TGI (MCF7 [12]): 8.79 µM | CC50 (MCF7 [12]; [18]): 4.4 µM | GI50 (SNB-19 [13]): 2.54 µM | TGI (SNB-19 [13]): 8.94 µM | CC50 (SNB-19 [13]; [18]): 30.6 µM | GI50 (NCI-H226): 10.1 µM | TGI (NCI-H226): 23.3 µM | CC50 (NCI-H226; [18]): 53.6 µM | Activity (SK-MEL-5): -87.04% | GI50 (SW-620 [14]): 1.25 µM | TGI (SW-620 [14]): 3 µM | CC50 (SW-620 [14]; [18]): 7.16 µM | Activity (SF-268 [15]): 38.37% | GI50 (BT-549): 2.05 µM | TGI (BT-549): 6.05 µM | CC50 (BT-549; [18]): 24.6 µM | GI50 (NCI-H460): 1.49 µM | TGI (NCI-H460): 3.35 µM | CC50 (NCI-H460; [18]): 7.53 µM | Activity (T47D): -26.4% | Activity (KM12): 30.09% | GI50 (TK-10 [16]): 2.43 µM | TGI (TK-10 [16]): 6.67 µM | CC50 (TK-10 [16]; [18]): 24.1 µM | Activity (MCF7 [17]): 10.48%
